From patent US6080772A, “Thiazole compounds and methods of modulating signal transduction” (Sugen, Inc., priority 1997, dated 2000)
Where two headings read alike, the source gives them in different places.

Key:
[1] = system: primary adipocytes; test: Primary adipocyte glucose uptake assay (14C glucose); conditions: test compound 50 mM without insulin, compared to samples containing only insulin (final concentration=100 μm)
[2] = system: insulin receptor (IR); test: Phosphotyrosine enzyme linked immunosorbent assay: pTyr on insulin receptor in NIH3T3 cells over-expressing human IR (H25 cells); conditions: for EC50: read-out: ACTIVITY EC50; for one point determination, effect on PTYR: at 100 μm

Row | Compound | EC50 ([2]; Table II, […], no lot stated) | response in the primary adipocyte glucose uptake assay compared with the insulin control [1] | also measured
1 | Cn1ccnc1Sc1ncc([N+](=O)[O-])s1 [Compound 13, 1-Methyl-2-[(5-nitrothiazol-2-yl)mercapto]imidazole] | – | did not give a response greater than or equal to the insulin control | EC50 ([2]; Table II, LOT 1): 13 µM; EC50 ([2]; Table II, LOT 2): 14 µM
2 | Cn1nnnc1Sc1ncc([N+](=O)[O-])s1 [Compound 15] | – | did not give a response greater than or equal to the insulin control | increase in PTYR ([2]; Table II, at 50 μM, LOT2): 40%; EC50 ([2]; Table II, LOT 1): 8.4 µM
3 | O=[N+]([O-])c1cnc(Sc2nc3ccccc3[nH]2)s1 [Compound 79, 2-[(5-Nitrothiazol-2-yl)mercapto]benzimidazole] | – | did not give a response greater than or equal to the insulin control | EC50 ([2]; Table III, […]): 23 µM
4 | O=[N+]([O-])c1cnc(Sc2ncc(C(F)(F)F)cn2)s1 [Compound 83, 2-[(5-Nitrothiazol-2-yl)mercapto]-5-(trifluoromethyl)pyrimidine] | 8.8 µM | did not give a response greater than or equal to the insulin control | –
5 | Cc1nccc(C(F)(F)F)c1-c1nnc(Sc2ncc([N+](=O)[O-])s2)o1 [Compound 86, 2-[2-Methyl-4-(trifluoromethyl)pyrid-3-yl]-5-[(5-nitrothiazol-2-yl)mercapto]-1,3,4-oxadiazole] | – | did not give a response greater than or equal to the insulin control | increase in PTYR ([2]; Table II, at 25 μM): 59%
6 | CC(C)n1c(Sc2ncc([N+](=O)[O-])s2)nc2cc(C(F)(F)F)ccc21 [Compound 95, 1-Isopropyl-2-[(5-nitrothiazol-2-yl)mercapto]-5-(trifluoromethyl)benzimidazole] | > 100 µM | did not give a response greater than or equal to the insulin control | –
7 | Cn1c(O)nnc1Sc1ncc([N+](=O)[O-])s1 [Compound 99] | – | did not give a response greater than or equal to the insulin control | one point determination, effect on PTYR ([2]; Table II): no effect
8 | CCCCCn1c(O)nnc1Sc1ncc([N+](=O)[O-])s1 [Compound 100] | – | did not give a response greater than or equal to the insulin control | one point determination, effect on PTYR ([2]; Table II): no effect

Further lines, with some results ahead:

Row | EC50 ([2]; Table II, […], no lot stated) | Compound | response in the primary adipocyte glucose uptake assay compared with the insulin control [1] | also measured
9 | 8 µM | Nc1nnc(Sc2ncc([N+](=O)[O-])s2)s1 [Compound 14] | did not give a response greater than or equal to the insulin control | –
10 | > 100 µM | CC(C)n1c(Sc2ncc([N+](=O)[O-])s2)nc2ccccc21 [Compound 94, 1-Isopropyl-2-[(5-nitrothiazol-2-yl)mercapto]benzimidazole] | did not give a response greater than or equal to the insulin control | –
11 | 7 to 15 µM | O=[N+]([O-])c1cnc(Sc2nc3cnccc3[nH]2)s1 [Compound 101] | did not give a response greater than or equal to the insulin control | –
